The values that follow come from patent US6841172B1, “Method for iron delivery to a patient by transfer from dialysate” (HemoCleanse, Inc., priority 1996, dated 2005).

One data set has as its system red blood cells. As to the kind of experiment: Monitoring of hemolysis in experimental dialysis (plasma absorbance at 420 and 585 nm). The arrangement: species or system bovine. The conditions noted are these: compared with similar experiments without iron in the dialysate. From the text: To determine whether the method of Example 1 would cause hemolysis (lysis of red blood cells with the liberation of hemoglobin), absorbance data at 420 and 585 nm was collected for the plasma at various stages of the experiment described in Example 1.

Data set [1] is described as follows: Transfer of ferrous gluconate from dialysate into blood by hemodialysis through a PAN membrane dialyzer. The format is in vitro ADME, bovine. The protocol:
A two liter volume of bovine blood (hematocrit adjusted from 49 to 40 with saline) which had been stored with heparin anticoagulation for 24 hours was dialyzed using a PAN membrane dialyzer. The volume was maintained at 2 liters throughout the experiment by adding saline.
A sample of the blood was taken prior to dialysis of the blood and tested for iron content. The iron content of the pre-dialysis blood was 110 μg/dl and the transferrin iron binding capacity was 234 μg/dl. Dialysis was then started using the following equipment and conditions:
The circuit was primed with dialysate, prepared as described above, pumps were adjusted for proper flow, and then the blood side was drained of dialysate by pulling the Blood In tube out of the dialysis bath and allowing air to fill this side.
Assays were performed to determine plasma iron concentrations at 0, 5, 10, 20 and 30 minutes. […] This transfer indicates an avidity of plasma for the iron complex, even higher than the iron binding capacity of transferrin.

Regarding ferrous gluconate, the “level of hemolysis during dialysis” value in the data set with red blood cells was “not higher than that of similar experiments conducted without iron in the dialysate”. Further, the plasma iron level in data set [1] (after 30 minutes of dialysis, dialysate iron 125 μg/dl, pre-dialysis blood iron 110 μg/dl, transferrin iron binding capacity 234 μg/dl) is approximately 500 µg/dL. Besides, the “percent saturation of transferrin” value in data set [1] (after only a few minutes of hemodialysis, dialysate iron 125 μg/dl) is recorded as 100%. Moreover, the “iron transferred per dialysis treatment” value in data set [1] (dialysate ferrous gluconate increased to 4 mg/dl) was 15 mg. Also, in data set [1] (if the initial rate of iron transfer is continued for 180 minutes, dialysate 1 mg/dl ferrous gluconate), the “iron transferred to the plasma” value was “approximately 4 mg”.
